Data taken from article PMC7316778 (Nature Communications, 2020).
Values joined by “and” are separate entries in the source; they are usually repeats but may differ in a detail not shown here. Equal entries are not always repeated. Where two headings read alike, the source gives them in different places.

Columns and labels:
ACVR2B = ACVR2B (Homo sapiens, UniProt Q13705); experiment: SelectScreen kinase assay
Method: (§1) Selectivity profiling assays were performed by the Invitrogen SelectScreen™ Services. […] The concentration of ATP was selected to be equal to the KM, unless indicated otherwise.

AURKC (Aurora C) = target: T1, AURKC (Aurora C) (Homo sapiens, UniProt Q9UQB9); experiment: SelectScreen kinase assay
T1 sequence (Q9UQB9 1-309): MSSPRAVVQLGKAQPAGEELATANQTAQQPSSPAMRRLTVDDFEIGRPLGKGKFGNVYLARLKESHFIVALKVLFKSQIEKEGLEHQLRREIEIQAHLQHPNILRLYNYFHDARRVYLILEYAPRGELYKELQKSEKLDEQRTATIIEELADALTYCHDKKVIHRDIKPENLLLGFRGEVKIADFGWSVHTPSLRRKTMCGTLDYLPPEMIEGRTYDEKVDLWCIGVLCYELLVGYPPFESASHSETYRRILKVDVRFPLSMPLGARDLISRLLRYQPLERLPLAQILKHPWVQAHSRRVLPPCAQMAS
Method: as §1

CLK4 = CLK4 (Homo sapiens, UniProt Q9HAZ1); experiment: SelectScreen kinase assay
Sequence of CLK4 (Q9HAZ1 whole entry, species assumed): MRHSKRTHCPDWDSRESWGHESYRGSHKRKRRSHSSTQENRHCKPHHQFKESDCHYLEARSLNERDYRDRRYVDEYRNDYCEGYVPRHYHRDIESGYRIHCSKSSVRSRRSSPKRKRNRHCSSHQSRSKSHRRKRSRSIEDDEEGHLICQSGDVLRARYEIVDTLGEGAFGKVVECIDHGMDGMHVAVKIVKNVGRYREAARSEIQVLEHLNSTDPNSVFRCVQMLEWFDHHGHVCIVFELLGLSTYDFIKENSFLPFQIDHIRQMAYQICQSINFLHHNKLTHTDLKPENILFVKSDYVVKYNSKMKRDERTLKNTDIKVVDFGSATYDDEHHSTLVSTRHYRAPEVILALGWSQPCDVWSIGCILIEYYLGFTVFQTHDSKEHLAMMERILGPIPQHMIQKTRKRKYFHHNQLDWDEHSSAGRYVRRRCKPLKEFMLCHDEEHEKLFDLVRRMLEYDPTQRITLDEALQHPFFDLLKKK
Method: as §1

JAK1 = JAK1 (Homo sapiens, UniProt P23458); experiment: SelectScreen kinase assay; conditions: for Inhibition at 1 µM (%): JAK1, ZLYTE, ATP Km app
Sequence of JAK1 (P23458 whole entry): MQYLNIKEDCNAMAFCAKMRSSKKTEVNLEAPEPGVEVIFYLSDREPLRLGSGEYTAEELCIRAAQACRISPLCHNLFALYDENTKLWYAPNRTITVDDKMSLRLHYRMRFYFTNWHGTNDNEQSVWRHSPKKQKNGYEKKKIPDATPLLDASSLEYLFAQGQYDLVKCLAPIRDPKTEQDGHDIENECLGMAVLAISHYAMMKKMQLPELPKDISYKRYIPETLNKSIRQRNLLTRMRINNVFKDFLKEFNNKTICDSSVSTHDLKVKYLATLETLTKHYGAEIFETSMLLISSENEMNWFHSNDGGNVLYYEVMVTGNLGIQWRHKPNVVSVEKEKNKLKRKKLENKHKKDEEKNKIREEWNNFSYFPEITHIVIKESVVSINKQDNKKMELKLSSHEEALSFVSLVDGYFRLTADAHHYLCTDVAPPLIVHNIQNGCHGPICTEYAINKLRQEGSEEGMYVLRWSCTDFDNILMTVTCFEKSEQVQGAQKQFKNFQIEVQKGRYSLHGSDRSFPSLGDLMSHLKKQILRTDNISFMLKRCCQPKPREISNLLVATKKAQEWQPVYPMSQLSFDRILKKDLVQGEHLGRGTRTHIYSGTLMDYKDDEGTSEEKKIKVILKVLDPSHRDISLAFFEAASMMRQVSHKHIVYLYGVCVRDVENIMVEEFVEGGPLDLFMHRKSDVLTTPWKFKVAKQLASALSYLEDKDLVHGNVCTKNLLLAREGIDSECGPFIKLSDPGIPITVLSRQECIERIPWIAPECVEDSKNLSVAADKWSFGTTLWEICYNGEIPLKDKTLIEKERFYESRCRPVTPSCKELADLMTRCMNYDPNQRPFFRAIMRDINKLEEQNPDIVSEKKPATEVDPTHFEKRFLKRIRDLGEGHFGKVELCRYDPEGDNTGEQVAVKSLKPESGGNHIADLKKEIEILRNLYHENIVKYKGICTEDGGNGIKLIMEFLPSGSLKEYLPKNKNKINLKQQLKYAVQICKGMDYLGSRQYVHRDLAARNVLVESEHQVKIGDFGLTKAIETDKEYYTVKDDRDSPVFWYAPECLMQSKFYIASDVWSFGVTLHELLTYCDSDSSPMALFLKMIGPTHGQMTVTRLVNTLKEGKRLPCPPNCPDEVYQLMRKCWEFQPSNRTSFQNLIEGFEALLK
Method: as §1

MAPK11 (p38 beta) = MAPK11 (p38 beta) (Homo sapiens, UniProt Q15759); experiment: SelectScreen kinase assay
Sequence of MAPK11 (p38 beta) (Q15759 whole entry): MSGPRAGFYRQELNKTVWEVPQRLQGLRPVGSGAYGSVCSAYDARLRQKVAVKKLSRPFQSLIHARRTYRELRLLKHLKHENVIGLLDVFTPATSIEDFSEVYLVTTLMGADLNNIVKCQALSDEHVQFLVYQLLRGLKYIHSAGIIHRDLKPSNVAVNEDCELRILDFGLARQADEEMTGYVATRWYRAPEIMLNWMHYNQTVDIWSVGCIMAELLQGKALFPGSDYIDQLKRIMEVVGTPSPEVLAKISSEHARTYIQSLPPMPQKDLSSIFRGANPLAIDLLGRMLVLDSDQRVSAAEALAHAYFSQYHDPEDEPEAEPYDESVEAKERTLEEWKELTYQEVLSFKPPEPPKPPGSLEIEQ
Method: as §1

MARK3 = MARK3 (Homo sapiens, UniProt P27448); experiment: SelectScreen kinase assay
Sequence of MARK3 (P27448 whole entry): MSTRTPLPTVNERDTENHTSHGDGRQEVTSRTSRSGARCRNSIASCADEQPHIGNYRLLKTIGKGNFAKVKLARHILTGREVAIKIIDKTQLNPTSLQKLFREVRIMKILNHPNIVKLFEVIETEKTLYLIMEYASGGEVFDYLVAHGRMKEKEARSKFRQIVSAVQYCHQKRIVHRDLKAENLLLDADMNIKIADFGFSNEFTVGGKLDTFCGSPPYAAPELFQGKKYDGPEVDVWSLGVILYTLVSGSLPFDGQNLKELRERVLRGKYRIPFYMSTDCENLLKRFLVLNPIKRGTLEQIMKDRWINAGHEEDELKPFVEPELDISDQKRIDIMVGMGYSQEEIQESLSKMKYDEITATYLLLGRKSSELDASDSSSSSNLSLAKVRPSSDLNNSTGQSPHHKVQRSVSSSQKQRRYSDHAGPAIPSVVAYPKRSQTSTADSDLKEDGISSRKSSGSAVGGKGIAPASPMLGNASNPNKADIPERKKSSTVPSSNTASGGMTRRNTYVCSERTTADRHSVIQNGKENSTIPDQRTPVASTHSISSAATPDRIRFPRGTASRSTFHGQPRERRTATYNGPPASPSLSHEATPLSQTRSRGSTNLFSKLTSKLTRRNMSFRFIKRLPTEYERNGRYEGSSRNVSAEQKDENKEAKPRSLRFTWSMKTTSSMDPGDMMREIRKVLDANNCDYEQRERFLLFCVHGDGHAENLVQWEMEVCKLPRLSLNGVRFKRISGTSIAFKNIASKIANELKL
Method: as §1

NEK8 = NEK8 (Homo sapiens, UniProt Q86SG6); experiment: SelectScreen kinase assay
Sequence of NEK8 (Q86SG6 whole entry): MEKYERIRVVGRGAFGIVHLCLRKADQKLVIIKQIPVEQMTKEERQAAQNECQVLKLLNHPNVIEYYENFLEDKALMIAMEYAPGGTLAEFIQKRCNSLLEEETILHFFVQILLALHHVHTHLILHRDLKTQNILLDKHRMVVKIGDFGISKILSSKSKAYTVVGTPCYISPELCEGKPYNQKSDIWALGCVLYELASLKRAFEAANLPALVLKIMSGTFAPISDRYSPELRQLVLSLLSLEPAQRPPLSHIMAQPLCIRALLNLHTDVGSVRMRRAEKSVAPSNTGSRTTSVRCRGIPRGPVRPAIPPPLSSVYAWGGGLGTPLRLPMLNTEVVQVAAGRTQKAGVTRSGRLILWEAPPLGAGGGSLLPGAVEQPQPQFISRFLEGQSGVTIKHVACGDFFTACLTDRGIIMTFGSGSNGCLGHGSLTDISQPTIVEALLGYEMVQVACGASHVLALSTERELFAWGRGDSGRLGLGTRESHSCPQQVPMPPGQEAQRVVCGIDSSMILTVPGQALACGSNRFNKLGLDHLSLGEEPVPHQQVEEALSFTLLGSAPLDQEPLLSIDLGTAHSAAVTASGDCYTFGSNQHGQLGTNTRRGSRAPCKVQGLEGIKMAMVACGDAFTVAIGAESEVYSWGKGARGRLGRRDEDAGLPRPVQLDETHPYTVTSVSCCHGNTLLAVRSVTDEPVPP
Method: as §1

PHKG2 = PHKG2 (Homo sapiens, UniProt P15735); experiment: SelectScreen kinase assay
Method: as §1

PIM1 = PIM1 (Homo sapiens, UniProt P11309); experiment: SelectScreen kinase assay; conditions: for Inhibition at 1 µM (%): PIM1, ZLYTE, ATP Km app
Sequence of PIM1 (P11309 whole entry): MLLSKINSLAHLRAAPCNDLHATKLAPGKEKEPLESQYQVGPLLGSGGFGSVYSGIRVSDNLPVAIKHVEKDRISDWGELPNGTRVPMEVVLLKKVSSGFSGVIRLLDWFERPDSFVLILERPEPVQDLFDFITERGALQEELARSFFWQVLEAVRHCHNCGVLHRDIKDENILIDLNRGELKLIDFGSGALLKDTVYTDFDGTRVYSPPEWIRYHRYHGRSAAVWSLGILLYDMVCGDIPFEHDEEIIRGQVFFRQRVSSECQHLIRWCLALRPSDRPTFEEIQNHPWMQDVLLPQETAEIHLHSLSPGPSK
Method: as §1

RET = RET (Homo sapiens, UniProt P07949); experiment: SelectScreen kinase assay
Method: as §1

SPHK2 = SPHK2 (Homo sapiens, UniProt Q9NRA0); experiment: SelectScreen kinase assay
Sequence of SPHK2 (Q9NRA0 whole entry): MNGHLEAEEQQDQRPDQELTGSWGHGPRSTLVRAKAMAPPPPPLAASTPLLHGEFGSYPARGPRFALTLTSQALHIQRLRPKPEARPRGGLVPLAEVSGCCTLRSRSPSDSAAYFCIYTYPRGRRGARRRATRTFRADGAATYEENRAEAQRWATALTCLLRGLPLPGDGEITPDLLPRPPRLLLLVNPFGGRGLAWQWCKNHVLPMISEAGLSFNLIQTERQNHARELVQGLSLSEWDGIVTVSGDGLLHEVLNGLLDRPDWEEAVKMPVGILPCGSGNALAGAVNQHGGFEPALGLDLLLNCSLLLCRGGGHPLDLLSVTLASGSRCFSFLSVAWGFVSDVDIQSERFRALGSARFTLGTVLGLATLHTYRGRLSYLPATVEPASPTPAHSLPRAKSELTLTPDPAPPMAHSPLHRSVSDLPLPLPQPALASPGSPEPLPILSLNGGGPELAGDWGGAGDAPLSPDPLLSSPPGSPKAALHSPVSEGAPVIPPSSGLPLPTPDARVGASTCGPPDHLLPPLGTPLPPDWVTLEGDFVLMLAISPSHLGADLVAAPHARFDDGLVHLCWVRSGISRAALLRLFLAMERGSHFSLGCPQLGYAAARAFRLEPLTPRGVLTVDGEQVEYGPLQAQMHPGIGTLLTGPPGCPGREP
Method: as §1

ULK1 = target: T2, ULK1 (Homo sapiens, UniProt O75385); experiment: SelectScreen kinase assay
T2 sequence (O75385 1-1050): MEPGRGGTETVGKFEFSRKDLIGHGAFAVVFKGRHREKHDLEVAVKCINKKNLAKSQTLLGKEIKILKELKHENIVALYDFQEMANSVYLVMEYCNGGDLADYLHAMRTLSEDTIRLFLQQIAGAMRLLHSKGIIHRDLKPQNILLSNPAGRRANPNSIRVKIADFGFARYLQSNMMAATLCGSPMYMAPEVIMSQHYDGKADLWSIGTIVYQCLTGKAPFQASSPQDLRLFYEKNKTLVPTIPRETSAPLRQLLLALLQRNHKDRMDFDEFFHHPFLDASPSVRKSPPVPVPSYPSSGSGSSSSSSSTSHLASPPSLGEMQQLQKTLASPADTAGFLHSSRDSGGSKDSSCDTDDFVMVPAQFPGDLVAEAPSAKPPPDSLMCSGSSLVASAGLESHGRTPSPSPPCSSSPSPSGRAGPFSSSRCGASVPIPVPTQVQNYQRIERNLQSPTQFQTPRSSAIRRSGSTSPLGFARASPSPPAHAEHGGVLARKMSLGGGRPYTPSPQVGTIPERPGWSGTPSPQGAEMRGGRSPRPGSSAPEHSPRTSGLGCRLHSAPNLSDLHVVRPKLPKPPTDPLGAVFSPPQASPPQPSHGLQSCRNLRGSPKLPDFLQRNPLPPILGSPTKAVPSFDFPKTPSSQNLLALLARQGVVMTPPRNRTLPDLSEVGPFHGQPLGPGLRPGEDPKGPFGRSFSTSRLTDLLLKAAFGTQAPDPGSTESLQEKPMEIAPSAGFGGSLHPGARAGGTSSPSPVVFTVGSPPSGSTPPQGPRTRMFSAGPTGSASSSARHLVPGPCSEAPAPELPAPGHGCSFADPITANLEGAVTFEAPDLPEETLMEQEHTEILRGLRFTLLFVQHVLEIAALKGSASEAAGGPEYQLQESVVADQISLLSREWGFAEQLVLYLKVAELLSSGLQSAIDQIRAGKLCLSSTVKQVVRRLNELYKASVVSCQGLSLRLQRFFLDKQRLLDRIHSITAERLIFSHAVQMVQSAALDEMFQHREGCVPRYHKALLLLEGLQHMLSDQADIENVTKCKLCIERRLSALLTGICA
Method: as §1

full-length FES^S700C = full-length FES^S700C (Homo sapiens, UniProt P07332, S700C); experiment: Competitive probe labeling with WEL033 in HEK293T lysate (gel-based)
[1] = 1 h, 1 μM WEL028, 1 h preincubation

Sequence of ACVR2B (Q13705 19-512): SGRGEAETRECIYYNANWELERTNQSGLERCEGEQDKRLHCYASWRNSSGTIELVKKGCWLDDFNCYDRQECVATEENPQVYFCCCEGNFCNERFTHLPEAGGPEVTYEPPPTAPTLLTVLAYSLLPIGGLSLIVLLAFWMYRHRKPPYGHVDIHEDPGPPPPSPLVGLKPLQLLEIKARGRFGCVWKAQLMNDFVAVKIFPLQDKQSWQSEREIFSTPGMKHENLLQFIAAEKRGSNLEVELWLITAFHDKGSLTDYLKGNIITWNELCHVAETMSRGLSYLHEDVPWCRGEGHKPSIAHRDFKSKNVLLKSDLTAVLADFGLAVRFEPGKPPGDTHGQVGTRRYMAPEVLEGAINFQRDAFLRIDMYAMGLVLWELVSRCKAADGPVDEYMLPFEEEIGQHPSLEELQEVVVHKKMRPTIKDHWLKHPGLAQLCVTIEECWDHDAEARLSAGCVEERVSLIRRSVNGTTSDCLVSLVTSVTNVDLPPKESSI

C#CCOc1ccc(Nc2ncc(Cl)c(Nc3ccccc3NC(=O)C=C)n2)c(OC)c1 [Compound 6] was tested. Which “Inhibition (%)” value (ACVR2B; 1 μM WEL028, 1 h preincubation) did it give?
Its value is 9%.

What about the “Inhibition at 1 µM (%)” value (ACVR2B; ACVR2B, 1 µM, LanthaScreen Binding, listed as WEL028, 1 µM) of the same compound?
Its value is 7%.

And the inhibition at 1 µM (ACVR2B; read-out: Inhibition at 1 µM (%), ACVR2B, 1 µM, LanthaScreen Binding)?
Its inhibition at 1 µM is 12%.

What about the inhibition at 1 µM (AURKC (Aurora C); [1]) of the same compound?
Its inhibition at 1 µM is 37%.

And the “Inhibition at 1 µM (%)” value (AURKC (Aurora C); AURKC (Aurora C), 1 µM, ZLYTE, ATP Km app, listed as WEL028, 1 µM)?
Its value is 41%.

And the inhibition at 1 µM (AURKC (Aurora C); read-out: Inhibition at 1 µM (%), AURKC (Aurora C), 1 µM, ZLYTE, ATP Km app)?
The inhibition at 1 µM was 33%.

What about the IC50 (CLK4) of the same compound?
The IC50 was 1260 nM.

What about the inhibition at 1 µM (CLK4; [1]) of the same compound?
The inhibition at 1 µM was 53%.

What about the inhibition at 10 µM (CLK4; 1 h, log[inhibitor] (M) -5.00, LanthaScreen Binding) of the same compound?
Its inhibition at 10 µM is 30%.

And the inhibition at 3.311 µM (CLK4; 1 h, log[inhibitor] (M) -5.48, LanthaScreen Binding)?
The inhibition at 3.311 µM was 55%.

What about the inhibition at 1.122 µM (CLK4; 1 h, log[inhibitor] (M) -5.95, LanthaScreen Binding) of the same compound?
The inhibition at 1.122 µM was 64%.

What about the inhibition at 0.3715 µM (CLK4; 1 h, log[inhibitor] (M) -6.43, LanthaScreen Binding) of the same compound?
The inhibition at 0.3715 µM was 39%.

And the inhibition at 0.123 µM (CLK4; 1 h, log[inhibitor] (M) -6.91, LanthaScreen Binding)?
The inhibition at 0.123 µM was 26%.

What about the inhibition at 0.0138 µM (CLK4; 1 h, log[inhibitor] (M) -7.86, LanthaScreen Binding) of the same compound?
Its inhibition at 0.0138 µM is 15%.

And the inhibition at 0.001514 µM (CLK4; 1 h, log[inhibitor] (M) -8.82, LanthaScreen Binding)?
Its inhibition at 0.001514 µM is 11%.

And the inhibition at 0.004571 µM (CLK4; 1 h, log[inhibitor] (M) -[…], LanthaScreen Binding)?
The inhibition at 0.004571 µM was 8%.

What about the “Inhibition at 1 µM (%)” value (CLK4; CLK4, 1 µM, LanthaScreen Binding, listed as WEL028, 1 µM) of the same compound?
The value was 52%.

What about the Apparent fold selectivity (CLK4; IC50 on that kinase divided by IC50 on FES^S700C) of the same compound?
The Apparent fold selectivity was 272 fold.

And the inhibition at 1 µM (CLK4; read-out: Inhibition at 1 µM (%), CLK4, 1 µM, LanthaScreen Binding)?
Its inhibition at 1 µM is 54%.

What about the “Inhibition (%)” value (JAK1; 1 μM WEL028, 1 h preincubation) of the same compound?
Its value is -3%.

And the “Inhibition at 1 µM (%)” value (JAK1)?
The value was -2%.

What about the “Inhibition at 1 µM (%)” value (JAK1; listed as WEL028, 1 µM) of the same compound?
The value was -3%.

What about the inhibition at 1 µM (MAPK11 (p38 beta); [1]) of the same compound?
Its inhibition at 1 µM is 6%.

And the “Inhibition at 1 µM (%)” value (MAPK11 (p38 beta); MAPK11 (p38 beta), 1 µM, ZLYTE, ATP Km app, listed as WEL028, 1 µM)?
Its value is 7%.

And the inhibition at 1 µM (MAPK11 (p38 beta); read-out: Inhibition at 1 µM (%), MAPK11 (p38 beta), 1 µM, ZLYTE, ATP Km app)?
Its inhibition at 1 µM is 6%.

And the inhibition at 1 µM (MARK3; [1])?
The inhibition at 1 µM was 6%.

And the “Inhibition at 1 µM (%)” value (MARK3; MARK3, 1 µM, ZLYTE, ATP Km app, listed as WEL028, 1 µM)?
Its value is 8%.

And the inhibition at 1 µM (MARK3; read-out: Inhibition at 1 µM (%), MARK3, 1 µM, ZLYTE, ATP Km app)?
The inhibition at 1 µM was 5%.

And the inhibition at 1 µM (NEK8; [1])?
The inhibition at 1 µM was 7%.

And the “Inhibition at 1 µM (%)” value (NEK8; NEK8, 1 µM, LanthaScreen Binding, listed as WEL028, 1 µM)?
Its value is 2% and 12%.

What about the inhibition at 1 µM (PHKG2; [1]) of the same compound?
Its inhibition at 1 µM is 0%.

What about the “Inhibition at 1 µM (%)” value (PHKG2; PHKG2, 1 µM, ZLYTE, ATP Km app) of the same compound?
The value was 11%.

And the inhibition at 1 µM (PIM1; [1])?
The inhibition at 1 µM was -8%.

And the “Inhibition at 1 µM (%)” value (PIM1)?
The value was -11%.

What about the “Inhibition at 1 µM (%)” value (PIM1; listed as WEL028, 1 µM) of the same compound?
The value was -5%.

And the inhibition at 1 µM (RET; [1])?
The inhibition at 1 µM was 7%.

What about the inhibition at 1 µM (RET; read-out: Inhibition at 1 µM (%), 1 µM, ZLYTE, ATP Km app) of the same compound?
The inhibition at 1 µM was 6%.

What about the “Inhibition at 1 µM (%)” value (SPHK2; 1 µM, Adapta, ATP 10, listed as WEL028, 1 µM) of the same compound?
The value was 5% and 1%.

What about the inhibition at 1 µM (SPHK2; [1]) of the same compound?
Its inhibition at 1 µM is 3%.

What about the “Inhibition (%)” value (ULK1; 1 μM WEL028, 1 h preincubation) of the same compound?
The value was 4%.

And the “Inhibition at 1 µM (%)” value (ULK1; 1 µM, LanthaScreen Binding, listed as WEL028, 1 µM)?
Its value is 4%.

What about the inhibition at 1 µM (ULK1; read-out: Inhibition at 1 µM (%), 1 µM, LanthaScreen Binding) of the same compound?
Its inhibition at 1 µM is 5%.

And the IC50 (full-length FES^S700C)?
The IC50 was 12.6 nM.
